Experimental findings from article PMC4159296, “Antibodies to the Extracellular Pore Loop of TRPM8 Act as Antagonists of Channel Activation” (PLoS ONE, 2014) are described below.

“Also recorded” adds a separate entry of the source. Like-named read-outs stand apart in the source and are kept apart here.

Format in all cases: cell-based
One assay has as its target T1, human TRPM8 (Homo sapiens, UniProt Q7Z2W7).
T1 construct: expressed in transfected cells; host or cells: T-REx-CHO (Chinese hamster ovary), tetracycline-induced
The assay is described as follows: agonist-induced 45Ca2+ uptake assay, CHO cells expressing human TRPM8. Conditions: for IC50: CHO cells, mean ± SD; for block of icilin-induced 45Ca2+ uptake, human TRPM8 in CHO cells: single concentration/volume, 30 µl antibody solution, stock concentrations not provided, Fig. 6A. On the procedure: (§1) Complementary DNAs of recombinant human, rat and mouse TRPM8 were stably transfected into Tetracycline-Regulated Expression cell line, T-REx-Chinese hamster ovary cell line from Invitrogen, Inc. (Carlsbad, CA). Twenty four hours before the assay, cells were seeded in Cytostar-T 96-well plates at a density of 3.0×10^4 per well, and TRPM8 channel expression was induced with 0.5 µg/ml tetracycline. On the day of the assay, culture media were removed, and cells were incubated with TRPM8 antibody (ACC-049), antagonist M8-B, or control IgG for 30 min before addition of ^45Ca^2+. Stock solutions of ACC-049, M8-B, and control IgG were diluted to the desired final concentrations in the assay buffer (F-12 Ham's containing 15 mM HEPES and 0.1 mg/ml BSA) keeping the final concentration of DMSO lower than 0.5% for M8-B. The activity of TRPM8 was monitored as function of cellular uptake of radioactive calcium. The final concentration of ^45Ca^2+in the ^45Ca^2+ uptake assay was 10 µCi/ml. […] For cold activation of TRPM8, cold assay buffer at 10°C was used. ACC-049 was assayed in cells stably expressing human, rat, or mouse TRPM8 channels. The other commercial antibodies listed in Table 1 were assayed at a single concentration in 30 µl in icilin induced activation of human TRPM8 channels. The TRPM8 antagonist M8-B was used as a positive control and control IgG was used as a negative control in all assays. TRPM8 activation was calculated as percent of control (POC) with agonist (cold, icilin or menthol) induced radioactive calcium uptake set as 100 percent and assay buffer only plus ^45Ca^2+ set as zero percent with exception of cold activation, where blockade with M8-B at 1 µM was set as zero percent. Evaluation of antagonism at heat activation of TRPV1 [26], and noxious cold temperature activation of TRPA1 [24] was conducted as reported previously.
(§2) GraphPad Prism 5.0 (GraphPad Software, Inc., San Diego, CA) software was used to plot the data and to calculate the 50% inhibitory concentrations (IC50) of compounds and antibodies using a sigmoidal dose-response equation.

A further assay deals with T2, rat TRPM8 (Rattus norvegicus, UniProt Q8R455).
T2 construct: expressed in transfected cells; host or cells: T-REx-CHO (Chinese hamster ovary), tetracycline-induced
T2 sequence (Q8R455 whole entry): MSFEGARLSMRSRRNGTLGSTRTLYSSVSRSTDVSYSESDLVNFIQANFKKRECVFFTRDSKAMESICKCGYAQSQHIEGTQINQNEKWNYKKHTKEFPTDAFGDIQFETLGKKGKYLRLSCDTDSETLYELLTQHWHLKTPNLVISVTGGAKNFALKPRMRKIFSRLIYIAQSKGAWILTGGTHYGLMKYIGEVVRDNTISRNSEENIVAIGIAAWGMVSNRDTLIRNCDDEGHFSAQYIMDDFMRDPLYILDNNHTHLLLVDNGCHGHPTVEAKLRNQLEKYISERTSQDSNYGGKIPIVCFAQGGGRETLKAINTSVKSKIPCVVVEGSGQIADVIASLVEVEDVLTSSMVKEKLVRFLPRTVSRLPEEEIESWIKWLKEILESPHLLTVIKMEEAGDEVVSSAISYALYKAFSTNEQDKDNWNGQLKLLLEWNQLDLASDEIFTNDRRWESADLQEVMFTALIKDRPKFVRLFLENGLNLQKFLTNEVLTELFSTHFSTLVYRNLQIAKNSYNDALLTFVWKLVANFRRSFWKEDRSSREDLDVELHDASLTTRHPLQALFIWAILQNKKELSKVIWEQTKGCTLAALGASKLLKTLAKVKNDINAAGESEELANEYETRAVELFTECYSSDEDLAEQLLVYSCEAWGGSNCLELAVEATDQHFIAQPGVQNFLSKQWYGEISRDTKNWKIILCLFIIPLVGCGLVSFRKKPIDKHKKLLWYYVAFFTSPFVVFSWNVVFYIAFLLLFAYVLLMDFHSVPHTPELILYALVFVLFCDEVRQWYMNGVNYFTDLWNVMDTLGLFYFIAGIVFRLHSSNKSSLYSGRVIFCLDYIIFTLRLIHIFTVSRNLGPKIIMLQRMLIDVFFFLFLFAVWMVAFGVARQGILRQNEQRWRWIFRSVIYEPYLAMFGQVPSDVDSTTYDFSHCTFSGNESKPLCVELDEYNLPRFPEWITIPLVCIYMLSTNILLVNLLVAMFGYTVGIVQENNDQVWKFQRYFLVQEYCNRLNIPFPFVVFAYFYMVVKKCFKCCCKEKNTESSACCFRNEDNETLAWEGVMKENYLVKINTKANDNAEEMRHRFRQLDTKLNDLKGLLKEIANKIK
Briefly: agonist-induced 45Ca2+ uptake assay, CHO cells expressing rat TRPM8. Conditions: mean ± SD. On the procedure:
as §1, §2

The target in another assay is T3, mouse TRPM8 (Mus musculus, UniProt Q8R4D5).
T3 construct: expressed in transfected cells; host or cells: T-REx-CHO (Chinese hamster ovary), tetracycline-induced
T3 sequence (Q8R4D5 whole entry): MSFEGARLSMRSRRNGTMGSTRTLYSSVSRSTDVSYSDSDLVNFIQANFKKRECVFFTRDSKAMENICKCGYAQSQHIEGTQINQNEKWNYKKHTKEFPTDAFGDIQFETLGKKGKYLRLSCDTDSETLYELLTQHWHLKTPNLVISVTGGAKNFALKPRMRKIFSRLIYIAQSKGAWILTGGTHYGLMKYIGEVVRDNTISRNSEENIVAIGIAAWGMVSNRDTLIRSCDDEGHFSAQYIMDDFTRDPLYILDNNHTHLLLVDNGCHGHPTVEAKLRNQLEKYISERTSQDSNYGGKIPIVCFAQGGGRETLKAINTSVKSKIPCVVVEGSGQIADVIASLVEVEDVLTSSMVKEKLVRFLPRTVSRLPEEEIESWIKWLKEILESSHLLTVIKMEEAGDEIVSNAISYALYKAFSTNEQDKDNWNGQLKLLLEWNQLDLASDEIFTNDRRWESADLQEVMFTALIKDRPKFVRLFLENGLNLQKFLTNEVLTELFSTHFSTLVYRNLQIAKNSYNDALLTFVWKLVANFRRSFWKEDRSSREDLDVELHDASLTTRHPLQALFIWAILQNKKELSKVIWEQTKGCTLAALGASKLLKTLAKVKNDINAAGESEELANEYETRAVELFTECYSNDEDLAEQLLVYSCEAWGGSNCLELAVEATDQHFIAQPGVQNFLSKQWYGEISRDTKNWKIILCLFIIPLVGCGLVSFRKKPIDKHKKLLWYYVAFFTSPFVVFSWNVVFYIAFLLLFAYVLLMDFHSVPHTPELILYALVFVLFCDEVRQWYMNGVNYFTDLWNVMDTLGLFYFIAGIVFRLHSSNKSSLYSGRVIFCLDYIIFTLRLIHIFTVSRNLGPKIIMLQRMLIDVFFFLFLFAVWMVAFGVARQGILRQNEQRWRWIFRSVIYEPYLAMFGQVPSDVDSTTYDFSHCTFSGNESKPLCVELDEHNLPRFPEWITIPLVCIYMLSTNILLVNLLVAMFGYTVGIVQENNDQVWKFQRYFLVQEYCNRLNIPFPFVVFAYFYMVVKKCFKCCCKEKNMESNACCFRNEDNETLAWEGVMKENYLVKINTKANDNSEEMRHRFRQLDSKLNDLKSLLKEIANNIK
Briefly: agonist-induced 45Ca2+ uptake assay, CHO cells expressing mouse TRPM8. Conditions: mean ± SD. As for the experimental part: as §1, §2

Assay [1] concerns the target T4, endogenous TRPM8 expressed in rat dorsal root ganglion neurons (Rattus norvegicus, UniProt Q8R455).
T4 construct: endogenous in cells; host or cells: primary dorsal root ganglion neurons from male Sprague Dawley rats
Briefly: icilin-induced 45Ca2+ uptake assay in freshly isolated rat DRG neurons. Conditions: 1 µM icilin; same single concentration/volume of antibodies; Fig. 6B.

The next assay addresses human TRPA1 (Homo sapiens, UniProt O75762). The assay is described as follows: noxious cold temperature activation of human TRPA1, 45Ca2+ uptake. Particulars: ACC-049 and control IgG 2.5 µM; peptide 10 µM; Fig. 2. As for the experimental part: as §1, with “ACC-049 was assayed in cells stably expressing human, rat, or mouse TRPM8 channels. The other commercial antibodies listed in Table 1 were assayed at a single concentration in 30 µl in icilin induced activation of human TRPM8 channels. The TRPM8 antagonist M8-B was used as a positive control and control IgG was used as a negative control in all assays.” left out, “Evaluation of antagonism at heat activation of TRPV1 [26], and noxious cold temperature activation of TRPA1 [24] was conducted as reported previously.” left out

For a further assay, the target named is human TRPV1 (Homo sapiens, UniProt Q8NER1). Briefly: heat activation of human TRPV1, 45Ca2+ uptake. Particulars: ACC-049 and control IgG 2.5 µM; peptide 10 µM; Fig. 2. As for the experimental part:
as §1, with “ACC-049 was assayed in cells stably expressing human, rat, or mouse TRPM8 channels. The other commercial antibodies listed in Table 1 were assayed at a single concentration in 30 µl in icilin induced activation of human TRPM8 channels. The TRPM8 antagonist M8-B was used as a positive control and control IgG was used as a negative control in all assays.” left out, “Evaluation of antagonism at heat activation of TRPV1 [26], and noxious cold temperature activation of TRPA1 [24] was conducted as reported previously.” left out

T1 sequence (Q7Z2W7 whole entry): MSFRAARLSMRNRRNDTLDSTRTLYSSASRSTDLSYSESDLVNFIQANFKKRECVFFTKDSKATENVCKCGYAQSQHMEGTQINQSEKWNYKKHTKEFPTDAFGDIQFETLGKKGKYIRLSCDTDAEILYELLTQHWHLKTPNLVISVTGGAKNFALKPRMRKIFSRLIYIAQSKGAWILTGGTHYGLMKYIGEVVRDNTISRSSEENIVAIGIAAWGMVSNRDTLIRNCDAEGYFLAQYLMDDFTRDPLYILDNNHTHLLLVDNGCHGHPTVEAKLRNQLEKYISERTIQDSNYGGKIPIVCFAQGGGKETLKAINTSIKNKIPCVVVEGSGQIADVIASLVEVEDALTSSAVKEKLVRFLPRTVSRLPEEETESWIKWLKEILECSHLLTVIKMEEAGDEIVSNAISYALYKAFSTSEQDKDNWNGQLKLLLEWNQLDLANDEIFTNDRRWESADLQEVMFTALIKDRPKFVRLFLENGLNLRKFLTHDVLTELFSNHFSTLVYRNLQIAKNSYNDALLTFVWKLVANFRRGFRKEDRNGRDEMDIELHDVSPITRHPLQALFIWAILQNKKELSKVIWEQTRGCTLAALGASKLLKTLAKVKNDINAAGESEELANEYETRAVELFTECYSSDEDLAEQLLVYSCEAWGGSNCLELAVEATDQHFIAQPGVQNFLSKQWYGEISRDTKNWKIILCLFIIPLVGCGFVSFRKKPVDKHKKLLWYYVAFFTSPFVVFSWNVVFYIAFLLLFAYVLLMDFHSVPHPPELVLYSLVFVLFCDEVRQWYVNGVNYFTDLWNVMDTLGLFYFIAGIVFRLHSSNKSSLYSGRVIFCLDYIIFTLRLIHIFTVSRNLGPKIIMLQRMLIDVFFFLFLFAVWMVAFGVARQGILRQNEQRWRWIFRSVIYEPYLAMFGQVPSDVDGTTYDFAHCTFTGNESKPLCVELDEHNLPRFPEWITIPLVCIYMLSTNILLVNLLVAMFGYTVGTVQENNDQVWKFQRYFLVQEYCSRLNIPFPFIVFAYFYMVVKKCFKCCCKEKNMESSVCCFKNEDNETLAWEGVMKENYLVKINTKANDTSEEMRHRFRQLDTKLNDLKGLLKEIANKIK
T4 sequence (Q8R455 whole entry): as the sequence (Q8R455 whole entry) above
Chain of human TRPV1 (Q8NER1 whole entry): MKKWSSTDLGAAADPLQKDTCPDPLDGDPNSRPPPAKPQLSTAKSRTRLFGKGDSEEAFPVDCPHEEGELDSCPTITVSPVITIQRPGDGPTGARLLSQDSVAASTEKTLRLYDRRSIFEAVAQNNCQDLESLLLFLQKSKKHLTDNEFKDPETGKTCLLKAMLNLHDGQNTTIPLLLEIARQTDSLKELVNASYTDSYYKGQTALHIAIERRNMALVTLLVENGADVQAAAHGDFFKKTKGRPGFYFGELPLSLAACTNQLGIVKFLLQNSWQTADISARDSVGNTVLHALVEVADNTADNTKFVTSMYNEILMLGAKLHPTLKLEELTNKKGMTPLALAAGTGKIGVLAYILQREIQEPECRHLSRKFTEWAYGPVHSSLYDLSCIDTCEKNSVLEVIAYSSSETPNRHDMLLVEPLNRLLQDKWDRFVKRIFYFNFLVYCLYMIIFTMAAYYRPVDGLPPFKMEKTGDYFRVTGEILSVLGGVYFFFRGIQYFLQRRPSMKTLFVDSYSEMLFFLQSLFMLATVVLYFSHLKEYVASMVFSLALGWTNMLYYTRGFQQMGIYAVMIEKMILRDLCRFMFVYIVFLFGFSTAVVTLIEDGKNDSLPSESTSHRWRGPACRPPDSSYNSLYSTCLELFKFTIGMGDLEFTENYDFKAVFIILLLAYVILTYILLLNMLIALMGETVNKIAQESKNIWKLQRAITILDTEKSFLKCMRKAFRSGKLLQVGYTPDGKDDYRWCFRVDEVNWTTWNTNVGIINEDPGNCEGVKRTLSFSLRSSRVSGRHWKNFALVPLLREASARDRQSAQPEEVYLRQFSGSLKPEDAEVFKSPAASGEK

Consider `COc1cc(CN(CCN)C(=O)c2cccs2)ccc1OCc1ccccc1` [M8-B], for which the IC50 (as a rule, the concentration that gives 50% inhibition) at human TRPM8 (1 µM icilin, triplicate wells, read-out: IC50, icilin induced human TRPM8 channel activation) worked out at 11 ± 1.2 nM; at human TRPM8 (100 µM menthol, triplicate wells, read-out: IC50, menthol induced human TRPM8 channel activation), 1 ± 1.4 nM; on human TRPM8 (cold 10°C, one experiment in triplicate wells, read-out: IC50, cold induced human TRPM8 channel activation) it was 3 ± 1.1 nM; on rat TRPM8 (1 µM icilin, triplicate wells, read-out: IC50, icilin induced rat TRPM8 channel activation), 11 ± 1.1 nM; at rat TRPM8 (100 µM menthol, triplicate wells, read-out: IC50, menthol induced rat TRPM8 channel activation), 2 ± 1.3 nM; at rat TRPM8 (cold 10°C, one experiment in triplicate wells, read-out: IC50, cold induced rat TRPM8 channel activation) it was 2 ± 1.2 nM. Also, the 50% inhibitory concentration (IC50) came out at 6 ± 1.1 nM on mouse TRPM8 (1 µM icilin, triplicate wells, read-out: IC50, icilin induced mouse TRPM8 channel activation); 2 ± 1.2 nM at mouse TRPM8 (100 µM menthol, triplicate wells, read-out: IC50, menthol induced mouse TRPM8 channel activation); 2 ± 1.2 nM at mouse TRPM8 (cold 10°C, one experiment in triplicate wells, read-out: IC50, cold induced mouse TRPM8 channel activation). Further, on human TRPM8 (1 µM icilin), the “block of icilin-induced 45Ca2+ uptake, human TRPM8 in CHO cells” value is recorded as “fully; also recorded: completely blocked”. The “block of icilin-induced 45Ca2+ uptake, rat DRG neurons” value in assay [1] is reported as “full inhibition”.
Turning to “SDVD GTTYDFAHC (N-terminal SDVD) [peptide, cognate peptide of ACC-049, amino acid residues 917-929 of human TRPM8]”, the “block of icilin-induced 45Ca2+ uptake, human TRPM8 in CHO cells” value in the assay with human TRPM8 (1 µM icilin) was “no effects”. In addition, the “blockade of cold activation of human TRPM8, single concentration” value in the assay with human TRPM8 (ACC-049 and control IgG 2.5 µM, peptide 10 µM, cold, Fig. 2) is listed as “no effects”. Further, the “blockade of icilin activation of human TRPM8, single concentration” value with human TRPM8 (ACC-049 and control IgG 2.5 µM, peptide 10 µM, icilin, Fig. 2) is listed as “no effects”. In addition, the “block of icilin-induced 45Ca2+ uptake, rat DRG neurons” value in assay [1] is listed as “did not affect”. For the same compound, the “effect on noxious cold temperature activation of human TRPA1, single concentration” value with human TRPA1 was “no effects”. In the assay with human TRPV1, the “effect on heat activation of human TRPV1, single concentration” value was “no effects”.
